Measurements published in ChEMBL document CHEMBL5385848, “Discovery of novel hydroxyamidine based indoleamine 2,3-dioxygenase 1 (IDO1) and thioredoxin reductase 1 (TrxR1) dual inhibitors” (Eur J Med Chem, 2023).
Activity calls are given as the source filed them. The calls are words filed in the database; no cut-off is given here.

Assays:
[1] = target: Indoleamine 2,3-dioxygenase 1 (Mus musculus) (UniProt P28776); test: In vivo inhibition of IDO1 in BALB/c mouse implanted with mouse CT-26 cells assessed as reduction in plasma Kyn/Trp ratio at 60 mg/kg, po administered once daily by LC-MS/MS analysis; assay type: functional, organism-based
Indoleamine 2,3-dioxygenase 1 (Mus musculus), sequence (P28776 whole entry, looked up): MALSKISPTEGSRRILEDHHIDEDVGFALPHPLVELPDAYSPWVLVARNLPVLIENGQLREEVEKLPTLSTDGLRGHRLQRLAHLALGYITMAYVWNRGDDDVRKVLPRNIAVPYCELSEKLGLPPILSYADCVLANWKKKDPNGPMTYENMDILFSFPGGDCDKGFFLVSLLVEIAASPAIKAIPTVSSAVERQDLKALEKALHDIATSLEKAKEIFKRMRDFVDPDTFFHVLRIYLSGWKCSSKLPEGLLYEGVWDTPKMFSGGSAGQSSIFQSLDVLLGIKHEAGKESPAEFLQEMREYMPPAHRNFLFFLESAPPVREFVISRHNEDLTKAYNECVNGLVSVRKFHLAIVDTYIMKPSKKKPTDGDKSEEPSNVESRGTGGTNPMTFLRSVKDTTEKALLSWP

HCT-116 [2] = test: Cytotoxicity against human HCT-116 cells transfected with TrxR1 siRNA incubated for 24 hrs by CCK-8 assay (reference value: 3.49 +/- 0.28 uM); assay type: functional, cell-based; conditions: HCT-116, 24 h
[3] = target: Indoleamine 2,3-dioxygenase 1 (Mus musculus) (UniProt P28776); test: In vivo inhibition of IDO1 in BALB/c mouse implanted with mouse CT-26 cells assessed as increase in tumor Trp level at 60 mg/kg, po administered once daily by LC-MS/MS analysis; assay type: functional, organism-based
HCT-116 [4] = test: Cytotoxicity against human HCT-116 cells incubated for 24 hrs CCK-8 assay; assay type: functional, cell-based; conditions: HCT-116, 24 h

Activity [1]: Active | Activity [3]: Active
SMILES: O=C(Cc1ccc(O)cc1)Nc1nnc(CCCNc2nonc2/C(=N\O)Nc2ccc(F)c(Br)c2)s1
IC50 (HCT-116 [2]): 1670 nM | IC50 (HCT-116 [4]): 3330 nM
